Patent US7354936B2, “2-phenylpyran-4-one derivatives” (Almirall AG, priority 2000, dated 2008)

Assays:
[1] = biological target: T1, COX-1 (Homo sapiens, UniProt P23219); assay: COX-1 activity in human whole blood (TXB2, calcium ionophore A23187); type: cell-based; conditions: for IC50: 1 h at 37° C., TXB2 by ELISA; for inhibition at 100 µM: read-out: COX-1 inhibition at 100 μM, at 100 μM
T1 construct: Fresh blood from healthy volunteers; from tissue; host or cells: human whole blood (heparinized) from healthy volunteers
Procedure: (§1) COX-1 and COX-2 Activities in Human Whole Blood
For the COX-1 activity determination, 500:1 aliquots of blood were incubated with either 5:1 vehicle (dimethylsulphoxide) or 5:1 of a test compound for 1 h at 37° C. Calcium ionophore A23187 (25:M) was added 20 min before stopping the incubation. Plasma was separated by centrifugation (10 min at 13000 rpm) and kept at −30° C. until TXB2 levels were measured using an enzyme immunoassay kit (ELISA).
The effect of the compounds was evaluated by incubating each compound at five to six different concentrations with triplicate determinations. IC50 values were obtained by non-linear regression using InPlot, GraphPad software on an IBM computer.

[2] = biological target: T2, COX-2 (Homo sapiens, UniProt P35354); assay: COX-2 activity in human whole blood (PGE2, LPS-induced); type: cell-based; conditions: for IC50: LPS 24 h at 37° C., PGE2 by ELISA; for Ratio COX-1/COX-2: ratio of COX-1/COX-2 IC50 values
T2 construct: incubated in the presence of LPS (10:g/ml) for 24 h at 37° C. in order to induce the COX-2 expression; from tissue; host or cells: human whole blood (heparinized) from healthy volunteers, LPS-stimulated for 24 h
T2 sequence (P35354 18-604): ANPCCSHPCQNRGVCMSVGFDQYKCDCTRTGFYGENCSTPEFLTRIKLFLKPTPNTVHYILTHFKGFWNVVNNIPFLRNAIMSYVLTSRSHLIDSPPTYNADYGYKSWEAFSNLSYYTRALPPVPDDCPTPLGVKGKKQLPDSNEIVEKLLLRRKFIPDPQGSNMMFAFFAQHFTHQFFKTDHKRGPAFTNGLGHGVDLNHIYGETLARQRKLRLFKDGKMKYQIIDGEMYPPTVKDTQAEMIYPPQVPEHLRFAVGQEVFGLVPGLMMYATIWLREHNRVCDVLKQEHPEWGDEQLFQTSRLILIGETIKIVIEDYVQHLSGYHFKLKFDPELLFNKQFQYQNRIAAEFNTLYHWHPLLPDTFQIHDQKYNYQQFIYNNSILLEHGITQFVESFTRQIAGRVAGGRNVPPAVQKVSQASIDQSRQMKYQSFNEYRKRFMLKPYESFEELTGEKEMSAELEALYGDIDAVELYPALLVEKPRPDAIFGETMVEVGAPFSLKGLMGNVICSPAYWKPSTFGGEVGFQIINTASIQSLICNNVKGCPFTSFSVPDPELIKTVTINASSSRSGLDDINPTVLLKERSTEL
Procedure: as §1
Plasma was separated by centrifugation (10 min at 13000 rpm) and kept at −30° C. until PGE2 levels were measured using an enzyme immunoassay kit (ELISA). […] IC50 values were obtained by non-linear regression using InPlot, GraphPad software on an IBM computer.

T1 sequence (P23219 24-599): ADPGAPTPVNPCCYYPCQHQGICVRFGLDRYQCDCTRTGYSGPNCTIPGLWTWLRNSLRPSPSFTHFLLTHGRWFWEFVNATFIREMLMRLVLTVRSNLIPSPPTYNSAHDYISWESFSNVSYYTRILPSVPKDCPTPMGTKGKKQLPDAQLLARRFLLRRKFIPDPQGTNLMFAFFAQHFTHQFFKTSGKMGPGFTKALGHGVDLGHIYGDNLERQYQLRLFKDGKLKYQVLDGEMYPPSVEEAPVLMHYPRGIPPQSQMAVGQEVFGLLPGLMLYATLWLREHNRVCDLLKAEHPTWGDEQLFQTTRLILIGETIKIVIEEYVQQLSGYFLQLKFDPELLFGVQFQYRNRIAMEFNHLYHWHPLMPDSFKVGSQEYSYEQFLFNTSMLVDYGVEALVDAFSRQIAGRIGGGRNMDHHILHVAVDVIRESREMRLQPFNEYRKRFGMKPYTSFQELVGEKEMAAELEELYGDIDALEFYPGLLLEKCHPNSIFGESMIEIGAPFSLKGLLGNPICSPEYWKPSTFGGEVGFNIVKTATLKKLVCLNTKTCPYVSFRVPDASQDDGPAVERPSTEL

| Structure (SMILES) | IC50 [1] [nM] | IC50 [2] [nM] | Ratio COX-1/COX-2 [2] | melting point [°C] | inhibition at 100 µM [1] [%] |
| --- | --- | --- | --- | --- | --- |
| Cc1oc(-c2ccc(S(C)(=O)=O)cc2)c(Oc2ccc(F)cc2F)c(=O)c1Br [Example 17, 3-Bromo-5-(2,4-difluorophenoxy)-6-(4-methanesulfonylphenyl)-2-methyl pyran-4-one] | 20000 | 780 | 27 | – | – |
| Cc1oc(-c2ccc(S(C)(=O)=O)cc2)c(Oc2ccc(Cl)cc2)c(=O)c1Cl [Example 16, 3-Chloro-5-(4-chlorophenoxy)-6-(4-methanesulfonylphenyl)-2-methyl pyran-4-one] | 26000 | 530 | 74 | 274 | – |
| COCc1cc(=O)c(Oc2ccc(Cl)cc2)c(-c2ccc(S(C)(=O)=O)cc2)o1 [Example 28, 3-(4-Chlorophenoxy)-2-(4-methanesulfonylphenyl)-6-methoxymethylpyran-4-one] | 91900 | 440 | 209 | 156 | – |
| CC(=O)OCc1cc(=O)c(Oc2ccc(F)cc2F)c(-c2ccc(S(C)(=O)=O)cc2)o1 [Example 29, Acetic acid [5-(2,4-difluorophenoxy)-6-(4-methanesulfonylphenyl)-4-oxo-4H-pyran-2-yl]methyl ester] | – | – | – | 175 | – |
| CS(=O)(=O)c1ccc(-c2oc(C(=O)O)cc(=O)c2Oc2ccc(F)cc2F)cc1 [Example 32, 5-(2,4-Difluorophenoxy)-6-(4-methanesulfonylphenyl)-4-oxo-4H-pyran-2-carboxylic acid] | 450000 | 420 | 1070 | 245 | – |
| CS(=O)(=O)c1ccc(-c2oc(CO)cc(=O)c2Oc2ccc(Cl)cc2)cc1 [Example 24, 3-(4-Chlorophenoxy)-6-hydroxymethyl-2-(4-methanesulfonylphenyl)pyran-4-one] | – | 600 | >150 | 227 | 13 |
| Cc1ccc(Oc2c(-c3ccc(S(C)(=O)=O)cc3)oc(C)cc2=O)c(F)c1 [Example 12, 3-(2-Fluoro-4-methylphenoxy)-2-(4-methanesulfonylphenyl)-6-methyl pyran-4-one] | – | – | – | 171 | – |
| Cc1cc(=O)c(Oc2ccccc2C)c(-c2ccc(S(C)(=O)=O)cc2)o1 [Example 10, 2-(4-Methanesulfonylphenyl)-6-methyl-3-(2-methylphenoxy)pyran-4-one] | 19900 | 86 | 231 | 168 | – |
| Cc1oc(-c2ccc(S(C)(=O)=O)cc2)c(Oc2ccc(F)cc2)c(=O)c1Cl [Example 15, 3-Chloro-5-(4-fluorophenoxy)-6-(4-methanesulfonylphenyl)-2-methyl pyran-4-one] | – | – | – | 279 | – |
| Cc1cc(=O)c(Oc2ccc(Cl)cc2C)c(-c2ccc(S(C)(=O)=O)cc2)o1 [Example 2, 3-(4-Chloro-2-methylphenoxy)-2-(4-methanesulfonylphenyl)-6-methyl pyran-4-one] | 38500 | 130 | 296 | – | – |
| CC(=O)OCc1cc(=O)c(Oc2ccc(Cl)cc2)c(-c2ccc(S(C)(=O)=O)cc2)o1 [Example 31, Acetic acid [5-(4-chlorophenoxy)-6-(4-methanesulfonylphenyl)-4-oxo-4H-pyran-2-yl]methyl ester] | – | 1100 | >90 | 115 | 17 |
| CS(=O)(=O)c1ccc(-c2oc(C(=O)O)cc(=O)c2Oc2ccc(Cl)cc2)cc1 [Example 33, 5-(4-Chlorophenoxy)-6-(4-methanesulfonylphenyl)-4-oxo-4H-pyran-2-carboxylic acid] | – | – | – | 263 | – |
| Cc1oc(-c2ccc(S(C)(=O)=O)cc2)c(Oc2ccc(F)cc2F)c(=O)c1Cl [Example 14, 3-Chloro-5-(2,4-difluorophenoxy)-6-(4-methanesulfonylphenyl)-2-methyl pyran-4-one] | – | – | – | 210 | – |
| Cc1oc(-c2ccc(S(C)(=O)=O)cc2)c(Oc2ccc(Cl)cc2)c(=O)c1Br [Example 18, 3-Bromo-5-(4-chlorophenoxy)-6-(4-methanesulfonylphenyl)-2-methyl pyran-4-one] | 76700 | 820 | 93 | 251 | – |
| CS(=O)(=O)c1ccc(-c2oc(C(F)F)cc(=O)c2Oc2ccc(F)cc2F)cc1 [Example 34, 6-(1,1-Difluoromethyl)-3-(2,4-difluorophenoxy)-2-(4-methanesulfonylphenyl)pyran-4-one] | – | – | – | 156 | – |
| CCc1oc(-c2ccc(S(C)(=O)=O)cc2)c(Oc2ccc(F)cc2F)c(=O)c1C [Example 13, 3-(2,4-Difluorophenoxy)-6-ethyl-2-(4-methanesulfonylphenyl)-5-methyl pyran-4-one] | – | – | – | 200 | – |
| Cc1cc(=O)c(Oc2ccc(Br)cc2Br)c(-c2ccc(S(C)(=O)=O)cc2)o1 [Example 8, 3-(2,4-Dibromophenoxy)-2-(4-methanesulfonylphenyl)-6-methyl-pyran-4-one] | 57500 | 1130 | 51 | – | – |
| CCc1c(C)oc(-c2ccc(S(C)(=O)=O)cc2)c(Oc2ccc(F)cc2F)c1=O [Example 21, 3-(2,4-Difluorophenoxy)-5-ethyl-2-(4-methanesulfonylphenyl)-6-methyl pyran-4-one] | 35600 | 580 | 62 | 173 | – |
| CS(=O)(=O)c1ccc(-c2oc(CO)cc(=O)c2Oc2ccc(F)cc2)cc1 [Example 23, 3-(4-Fluorophenoxy)-6-hydroxymethyl-2-(4-methanesulfonylphenyl)pyran-4-one] | – | 1440 | >70 | 206 | 2 |
| CC(=O)OCc1cc(=O)c(Oc2ccc(F)cc2)c(-c2ccc(S(C)(=O)=O)cc2)o1 [Example 30, Acetic acid [5-(4-fluorophenoxy)-6-(4-methanesulfonylphenyl)-4-oxo-4H-pyran-2-yl]methyl ester] | 50300 | 140 | 359 | 180 | – |
| Cc1oc(-c2ccc(S(C)(=O)=O)cc2)c(Oc2ccc(F)cc2F)c(=O)c1C [Example 19, 3-(2,4-Difluorophenoxy)-5,6-dimethyl-2-(4-methanesulfonylphenyl)pyran-4-one] | 14600 | 82 | 178 | 192 | – |
| Cc1cc(=O)c(Oc2ccc(Br)cc2F)c(-c2ccc(S(C)(=O)=O)cc2)o1 [Example 6, 3-(4-Bromo-2-fluorophenoxy)-2-(4-methanesulfonylphenyl)-6-methyl pyran-4-one] | 40200 | – | 268 | – | – |
| CS(=O)(=O)c1ccc(-c2oc(CO)cc(=O)c2Oc2ccc(Br)cc2F)cc1 [Example 25, 3-(2-Fluoro-4-bromophenoxy)-6-hydroxymethyl-2-(4-methanesulfonylphenyl)pyran-4-one] | – | – | – | 202 to 203 | – |
| Cc1cccc(Oc2c(-c3ccc(S(C)(=O)=O)cc3)oc(C)cc2=O)c1 [Example 11, 2-(4-Methanesulfonylphenyl)-6-methyl-3-(3-methylphenoxy)pyran-4-one] | 14200 | 300 | 47 | 162 | – |
| Cc1cc(=O)c(Oc2ccc(Br)cc2Cl)c(-c2ccc(S(C)(=O)=O)cc2)o1 [Example 7, 3-(4-Bromo-2-chlorophenoxy)-2-(4-methanesulfonylphenyl)-6-methyl pyran-4-one] | – | 210 | – | – | – |
| Cc1c(C(F)F)oc(-c2ccc(S(C)(=O)=O)cc2)c(Oc2ccc(F)cc2F)c1=O [Example 38, 2-(1,1-Difluoromethyl)-5-(2,4-difluorophenoxy)-6-(4-methanesulfonylphenyl)-3-methylpyran-4-one] | – | – | – | 187.8 to 188.6 | – |
| COCc1cc(=O)c(Oc2ccc(F)cc2)c(-c2ccc(S(C)(=O)=O)cc2)o1 [Example 27, 3-(4-Fluorophenoxy)-2-(4-methanesulfonylphenyl)-6-methoxymethylpyran-4-one] | 86300 | 320 | 270 | – | – |
| Cc1ccc(Oc2c(-c3ccc(S(C)(=O)=O)cc3)oc(C)cc2=O)c(Cl)c1 [Example 3, 3-(2-Chloro-4-methylphenoxy)-2-(4-methanesulfonylphenyl)-6-methyl pyran-4-one] | 16300 | 240 | 68 | – | – |
| Cc1cc(=O)c(Oc2ccc(F)cc2C)c(-c2ccc(S(C)(=O)=O)cc2)o1 [Example 1, 3-(4-Fluoro-2-methylphenoxy)-2-(4-methanesulfonylphenyl)-6-methyl pyran-4-one] | – | 180 | 118 | 146 | – |
